Results taken from patent US6344471B1 (priority 1998, dated 2002).

Assays:
[1] = molecular target: high-affinity DFP binding site; set-up: species or system rat
[2] = system: rats having a lesion of the entorhinal cortex; conditions: rat, in vivo, ip
[3] = molecular target: acetylcholinesterase (Rattus norvegicus, UniProt P37136); assay: biochemical
[4] = system: young adult rats; conditions: rat, in vivo; cited from earlier work

Chain of acetylcholinesterase (P37136 32-614): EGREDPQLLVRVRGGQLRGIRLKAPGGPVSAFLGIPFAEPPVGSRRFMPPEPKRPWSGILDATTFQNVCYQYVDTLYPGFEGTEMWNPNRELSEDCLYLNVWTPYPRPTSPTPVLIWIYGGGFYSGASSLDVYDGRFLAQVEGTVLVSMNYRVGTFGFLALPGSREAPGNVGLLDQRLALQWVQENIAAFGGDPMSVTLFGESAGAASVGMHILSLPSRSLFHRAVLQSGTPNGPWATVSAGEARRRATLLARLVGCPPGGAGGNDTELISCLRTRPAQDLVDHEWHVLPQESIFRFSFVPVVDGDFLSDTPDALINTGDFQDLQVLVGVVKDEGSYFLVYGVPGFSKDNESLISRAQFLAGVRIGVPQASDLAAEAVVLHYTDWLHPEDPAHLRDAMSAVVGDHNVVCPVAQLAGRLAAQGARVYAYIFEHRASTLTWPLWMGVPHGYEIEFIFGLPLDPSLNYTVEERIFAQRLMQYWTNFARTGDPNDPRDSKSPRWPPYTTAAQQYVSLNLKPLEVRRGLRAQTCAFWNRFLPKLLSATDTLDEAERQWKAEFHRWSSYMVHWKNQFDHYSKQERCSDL

SMILES: CCCc1c(CC)c(=O)on1C(=O)N1CCCC1 [Example 1, 4-Ethyl-3-propyl-2-(1-pyrrolidinylcarbonyl)-5(2H)-isoxazolone]
- IC50 ([1]; read-out: IC50, inhibition of binding of [3H]DFP to the high-affinity binding site): 4.8 nM
- antagonism of the learning weakness induced by lesion of the entorhinal cortex [2]: not capable of antagonizing the learning weakness
- learning of the platform position [2]: sped up learning of the platform position considerably
- performance level on the second day of training [2]: same performance level as the vehicle-treated animals after 5 days of training
- Ki [3]: > 10000 nM
- selectivity (DFP binding site vs acetylcholinesterase) [3]: > 2000

SMILES: COP(=O)(OC)OC=C(Cl)Cl [dichlorvos, reference compound]
- binding/affinity to the high-affinity DFP binding site ([3H]DFP competition in vitro) [1]: binds

SMILES: Nc1c2c(nc3ccccc13)CCCC2 [tacrine]
- improvement of cognitive learning ability [4]: no improvement
